The record followed here is patent US11524934B2, “Phenylamine compounds” (PI INDUSTRIES LTD., priority 2017, dated 2022).

In one assay the test system is Septoria lycopersici. The assay is described as follows: Septoria lycopersici (Leaf spot of tomato) in vitro test, radial growth on Potato Dextrose Agar. As to conditions: 168 h, read-out: control.
In a further assay the test system is Phakopsora pachyrhizi. Nature of the assay: Phakopsora pachyrhizi test in soybean (in vivo on plants), preventive activity. The note with it: preventive spray on soybean plants, inoculated one day after treatment, disease severity rated vs untreated check. The procedure: Example 8 (In Vivo on Plants): Phakopsora pachyrhizi Test in Soybean
Compounds were dissolved in 2% DMSO/Acetone & then mixed with water to the calibrated spray volume of 50 ml and poured into the spray bottles for further applications.
To test the preventive activity of compounds, healthy young soybean plants raised in the greenhouse were sprayed with active compound preparation at the stated application rates inside the spray cabinets using hallowcone nozzles. One day after treatment, the plants were inoculated with spore suspension containing 2.1×10^6 Phakopsora pachyrhizi inoculum. The inoculated plants were then kept in greenhouse chamber at 25° C. temperature & 90% Relative Humidity for disease expression.
A visual assessment of compound's performance was carried out by rating the disease severity (0-100% scale) on treated plants on 3, 7, 10 & 15 days after application. Efficacy (% control) of the compounds was calculated by comparing the disease rating in the treatment with the one of the untreated control. The sprayed plants were also assessed for compound's plant compatibility by recording symptoms like necrosis, chlorosis & stunting.

In another assay the test system is Rhizoctonia solani. The note with it: 168 h, read-out: control.
A further assay deals with Alternaria solani. Nature of the assay: Alternaria solani (early blight of tomato/potato) in vitro test, radial growth on Potato Dextrose Agar. As to conditions: 168 h, read-out: control.
In another assay the test system is Botrytis cinerea. The assay is described as follows: Botrytis cinerea (Gray mold) in vitro test, radial growth on Potato Dextrose Agar. The note with it: 168 h, read-out: control.
For a further assay, the system named is Pyricularia oryzae. Nature of the assay: microbe, parasite or virus in culture. The note with it: 168 h, read-out: control. Type of assay: cell-based.
A further assay relates to Colletotrichum capsici. The assay is described as follows: Colletotrichum capsici (anthracnose) in vitro test, radial growth on Potato Dextrose Agar. As to conditions: Colletotrichum truncatum, 168 h, read-out: control.
A further assay deals with Fusarium culmorum. The assay is described as follows: Fusarium culmorum (Foot rot of cereals) in vitro test, radial growth on Potato Dextrose Agar. Type of assay: cell-based. The note with it: 168 h, read-out: control.

Protocol for Colletotrichum capsici: Colletotrichum capsici (anthracnose): Compounds were dissolved in 0.3% DMSO & then added to Potato Dextrose Agar medium just prior to dispensing it into Petri dishes. 5 ml medium with compound in the desired concentration was dispensed into 60 mm sterile petri-plates. After solidification each plate was seeded with 5 mm size mycelial disc taken form periphery of actively growing virulent culture plate. Plates were incubated in growth chambers at 25° C. temperature & 60% Relative Humidity for seven days and radial growth was measured.

In the case of `CCN(C)C=Nc1cc(C)c(C(=O)CSc2ccccc2)cc1C` [Compound 1, N′-(2,5-dimethyl-4-(2-(phenylthio)acetyl)phenyl)-N-ethyl-N-methylformimidamide], the inhibition of growth at 300 ppm with Septoria lycopersici, in the assay on Rhizoctonia solani, in the assay on Alternaria solani, with Botrytis cinerea and in the assay on Pyricularia oryzae was above 70% each time. Besides, the pest or weed control (usually the degree to which the test organism was suppressed or injured, in per cent) at 500 ppm in the assay on Phakopsora pachyrhizi is above 90%.

Regarding `CCN(C)C=Nc1cc(C)c(C(=O)COc2cccc(Br)c2)cc1C` [Compound 3, N′-(4-(2-(3-bromophenoxy)acetyl)-2,5-dimethylphenyl)-N-ethyl-N-methylformimidamide], the inhibition of growth at 300 ppm with Septoria lycopersici, with Colletotrichum capsici, in the assay on Rhizoctonia solani, in the assay with Alternaria solani, in the assay on Botrytis cinerea and with Pyricularia oryzae was above 70% in each case.

As for `CCN(C)C=Nc1cc(C)c(C(=O)CSc2cccc(F)c2)cc1C` [Compound 4, N-ethyl-N′-(4-(2-((3-fluorophenyl)thio)acetyl)-2,5-dimethylphenyl)-N-methylformimidamide], the inhibition of growth at 300 ppm in the assay with Septoria lycopersici, in the assay with Colletotrichum capsici, in the assay with Rhizoctonia solani, with Alternaria solani, with Botrytis cinerea and in the assay with Pyricularia oryzae was above 70% in each case. The compound also had a pest or weed control at 500 ppm in the assay on Phakopsora pachyrhizi above 90%.

Regarding `CCN(C)C=Nc1cc(C)c(C(=O)CSc2cccc(Br)c2)cc1C` [Compound 6, N′-(4-(2-((3-bromophenyl)thio)acetyl)-2,5-dimethylphenyl)-N-ethyl-N-methylformimidamide], the inhibition of growth at 300 ppm in the assay on Septoria lycopersici, in the assay on Colletotrichum capsici, in the assay on Rhizoctonia solani, in the assay with Alternaria solani, in the assay on Botrytis cinerea and in the assay with Pyricularia oryzae was above 70% throughout. The compound further yielded a pest or weed control at 500 ppm in the assay with Phakopsora pachyrhizi above 90%.

With `CCN(C)C=Nc1cc(C)c(C(=O)CSc2ccc(Cl)c(Cl)c2)cc1C` [Compound 8, N′-(4-(2-((3,4-dichlorophenyl)thio)acetyl)-2,5-dimethylphenyl)-N-ethyl-N-methylformimidamide], the pest or weed control at 500 ppm in the assay on Phakopsora pachyrhizi is above 90%. Further, the inhibition of growth at 300 ppm in the assay with Rhizoctonia solani, in the assay with Alternaria solani, in the assay on Botrytis cinerea and with Pyricularia oryzae was above 70% in each case.

For `CCN(C)C=Nc1cc(C)c(C(=O)COc2cccc(F)c2)cc1C` [Compound 9, N-ethyl-N′-(4-(2-(3-fluorophenoxy)acetyl)-2,5-dimethylphenyl)-N-methylformimidamide], the inhibition of growth at 300 ppm in the assay on Septoria lycopersici, with Colletotrichum capsici, with Rhizoctonia solani, in the assay with Alternaria solani, in the assay with Botrytis cinerea and with Pyricularia oryzae was above 70% in each case. In the assay with Phakopsora pachyrhizi, this compound yielded a pest or weed control at 500 ppm above 90%.

In the case of `CCN(C)C=Nc1cc(C)c(C(=O)COc2ccc(C)cc2)cc1C` [Compound 15, N′-(2,5-dimethyl-4-(2-(p-tolyloxy)acetyl)phenyl)-N-ethyl-N-methylformimidamide], the inhibition of growth at 300 ppm with Septoria lycopersici, in the assay with Colletotrichum capsici, in the assay on Rhizoctonia solani, with Alternaria solani, with Botrytis cinerea and with Pyricularia oryzae was above 70% in each case. The pest or weed control at 500 ppm in the assay on Phakopsora pachyrhizi is above 90%.

Compound `CCN(C)C=Nc1cc(C)c(C(=O)CSc2ncc(C(F)(F)F)cc2Cl)cc1C` [Compound 18, N′-(4-(2-((3-chloro-5-(trifluoromethyl)pyridin-2-yl)thio)acetyl)-2,5-dimethylphenyl)-N-ethyl-N-methylformimidamide] gave a pest or weed control at 500 ppm with Phakopsora pachyrhizi above 90%. Moreover, the inhibition of growth at 300 ppm with Rhizoctonia solani, in the assay with Alternaria solani, with Botrytis cinerea and with Pyricularia oryzae was above 70% throughout.

Regarding `CCN(C)C=Nc1cc(C)c(C(=O)CSc2cccc(OC)c2)cc1C` [Compound 27, N-ethyl-N′-(4-(2-((3-methoxyphenyl)thio)acetyl)-2,5-dimethylphenyl)-N-methylformimidamide], the inhibition of growth at 300 ppm with Septoria lycopersici, in the assay with Colletotrichum capsici, in the assay on Rhizoctonia solani, with Alternaria solani, in the assay on Botrytis cinerea and in the assay on Pyricularia oryzae was above 70% each time.

For the compound `CCN(C)C=Nc1cc(C)c(C(=O)CSc2ccc(Cl)cc2)cc1C` [Compound 29, N′-(4-(2-((4-chlorophenyl)thio)acetyl)-2,5-dimethylphenyl)-N-ethyl-N-methylformimidamide], the inhibition of growth at 300 ppm was above 70% with Septoria lycopersici; above 70% with Rhizoctonia solani; above 70% in the assay with Alternaria solani; above 70% with Botrytis cinerea; above 70% in the assay with Pyricularia oryzae; 70% with Fusarium culmorum.

For the compound `CCN(C)C=Nc1cc(C)c(C(=O)C(C)(C)Sc2cccc(C)c2)cc1C` [Compound 83, N′-(2,5-dimethyl-4-(2-methyl-2-(m-tolylthio)propanoyl)phenyl)-N-ethyl-N-methylformimidamide], the inhibition of growth at 300 ppm with Colletotrichum capsici is above 70%; in the assay with Rhizoctonia solani it was above 70%; with Alternaria solani, above 70%; in the assay on Botrytis cinerea, above 70%; in the assay with Pyricularia oryzae it was above 70%; in the assay with Fusarium culmorum it was 70%.

Take `CCN(C)C=Nc1cc(C)c(C(=O)COc2c(Cl)cccc2Cl)cc1C` [Compound 86, N′-(4-(2-(2,6-dichlorophenoxy)acetyl)-2,5-dimethylphenyl)-N-ethyl-N-methylformimidamide]: the inhibition of growth at 300 ppm is above 70% in the assay on Colletotrichum capsici; above 70% in the assay with Rhizoctonia solani; above 70% in the assay on Alternaria solani; above 70% with Botrytis cinerea; above 70% in the assay with Pyricularia oryzae; 70% in the assay on Fusarium culmorum.

For the compound `CCN(C)C=Nc1cc(C)c(C(=O)COc2c(C)cc(C)cc2Br)cc1C` [Compound 89, N′-(4-(2-(2-bromo-4,6-dimethylphenoxy)acetyl)-2,5-dimethylphenyl)-N-ethyl-N-methylformimidamide], the inhibition of growth at 300 ppm in the assay with Septoria lycopersici, with Colletotrichum capsici, in the assay on Rhizoctonia solani, with Alternaria solani, with Botrytis cinerea and in the assay on Pyricularia oryzae was above 70% throughout.

Take `CCN(C)C=Nc1cc(C)c(C(=O)COc2c(C)cccc2Cl)cc1C` [Compound 91, N′-(4-(2-(2-chloro-6-methylphenoxy)acetyl)-2,5-dimethylphenyl)-N-ethyl-N-methylformimidamide]: the inhibition of growth at 300 ppm with Colletotrichum capsici was above 70%; in the assay with Rhizoctonia solani, above 70%; with Alternaria solani, above 70%; in the assay on Botrytis cinerea, above 70%; in the assay with Pyricularia oryzae, above 70%; in the assay with Fusarium culmorum, 70%.

Consider `CCN(C)C=Nc1cc(C)c(C(=O)CN(C)c2ccc(C)cc2)cc1C` [Compound 92, N′-(2,5-dimethyl-4-(N-methyl-N-(p-tolyl)glycyl)phenyl)-N-ethyl-N-methylformimidamide], for which the inhibition of growth at 300 ppm with Septoria lycopersici, in the assay with Colletotrichum capsici, in the assay with Rhizoctonia solani, with Alternaria solani and in the assay with Pyricularia oryzae was above 70% in each case.

Regarding `Cc1cc(C(=O)COc2ccccc2Cl)c(C)cc1N=CN(C)C` [Compound 109, N′-(4-(2-(2-chlorophenoxy)acetyl)-2,5-dimethylphenyl)-N,N-dimethylformimidamide], the inhibition of growth at 300 ppm in the assay on Colletotrichum capsici is above 70%; in the assay on Alternaria solani, above 70%; in the assay on Pyricularia oryzae, above 70%; with Fusarium culmorum, 70%.

`CCN(C)C=Nc1cc(C)c(C(=O)Cn2cnnc2)cc1C` [Compound 114, N′-(4-(2-(4H-1,2,4-triazol-4-yl)acetyl)-2,5-dimethylphenyl)-N-ethyl-N-methylformimidamide]: the inhibition of growth at 300 ppm was above 70% with Colletotrichum capsici; above 70% in the assay on Rhizoctonia solani; above 70% with Alternaria solani; above 70% in the assay on Botrytis cinerea; above 70% in the assay with Pyricularia oryzae; 70% in the assay with Fusarium culmorum.
